≈ marks a conversion by molar mass, not a printed value.
Key:
[1] = system: adhesion of human neutrophils to the endothelial monolayer; test: Neutrophil adhesion assay on TNF-alpha induced HUVECs; assay type: cell-based; details: HUVEC, HUVECs pretreated 2 h, TNF-α 6 h, adhesion 1 h at 37° C.
Experimental: FIG. 5. IICT-TA67 inhibits the adhesion of Neutrophils on TNF-alpha induced HUVECs. To study whether the inhibition of Intercellular Adhesion Molecule type 1 (ICAM-1) and Vascular Cell Adhesion Molecule type 1(VCAM-1) functionally correlates with the inhibition of adhesion of neutrophils to the endothelial monolayer, neutrophil adhesion assay was performed. For this, HUVECs were pretreated with various concentrations of IICT-TA67 for 2 hours followed by induction with TNF-α for 6 hours. Human blood neutrophils were added onto the endothelial cells monolayer and allowed to adhere for one hour at 37° C. The number of cells that remained adhered to the monolayer was estimated by measuring the peroxidase activity.
Neutrophils were isolated from peripheral blood of healthy individuals. Blood was collected in heparin solution (20 U/ml) and erythrocytes were removed by sedimentation against 6% dextran solution. […] The number of cells were recorded to make a final concentration of 6×10^5 cells/ml.
The endothelial cells plated in 96-well culture plates were incubated with or without compound IICT-TA67 at desired concentrations for 2 h, followed by induction with TNF-α (10 ng/ml) for 6 h. […] The absorbance was read at 490 nm using an automated microplate reader (Model 680, Bio-Rad, USA).

[2] = system: Intercellular Adhesion Molecule type 1 (ICAM-1); test: Cell-ELISA, TNF-α induced ICAM-1 expression on HUVECs; assay type: cell-based; details: Homo sapiens, HUVEC; HUVECs pretreated 2 hours, TNF-α 16 hours
Experimental: FIG. 4. Inhibition of TNF-α induced expression Intercellular Adhesion Molecule type 1 (ICAM-1) and Vascular Cell Adhesion Molecule type 1 (VCAM-1) on HUVECs by IICT-TA67. To determine the effect of IICT-TA67 on TNF-α induced cell adhesion molecules such as ICAM-1 and VCAM-1, HUVECs were pretreated with various concentrations of IICT-TA67 for 2 hours followed by induction with TNF-α for 16 hours. The cell surface expression of cell adhesion molecules was measured by ELISA.
Cell-ELISA was used for measuring the expression of ICAM-1 on surface of endothelial cells. Endothelial cells were incubated with or without IICT-TA67 at desired concentrations for the required period, followed by treatment with TNF-α (10 ng/ml) for 16 h for ICAM-1 and VCAM-1 expression. The cells were fixed with 1.0% glutaraldehyde. Non-specific binding of antibody was blocked by using skimmed milk (3.0% in PBS). Cells were incubated overnight at 4° C. with anti-ICAM-1 mAb anti-VCAM-1 antibody, diluted in blocking buffer, the cells were further washed with PBS and incubated with peroxidase-conjugated goat anti-mouse secondary Abs. […] Reaction was stopped by the addition of 2 N sulfuric acid and absorbance at 490 nm was measured using microplate reader (Spectramax 190, Molecular Devices, USA).

[3] = Balb/c 3T3 Neutral Red Uptake (NRU) cytotoxicity assay; assay type: cell-based; details: mouse
Description: (§1) FIG. 8. IICT-TA67 is not toxic. To evaluate the cytotoxicity of test chemical (IICT-TA67) BALB/c 3T3 cell line was used for Neutral Red Uptake (NRU) cytotoxicity test. The test result has been used to determine IC50 for IICT-TA67 and acute oral toxicity (LD50) in rodent was predicted.
(§2) Basal cytotoxicity of IICT-TA67 has been performed to measure IC50 and thereafter predict in vivo acute oral LD50 values in rodent by using Halle's Registry of cytotoxicity (RC) prediction model: log (LD50)=0.435×log (IC50)+0.625 (Halle, 1998; Spielmann et al., 1999). Balb/c 3T3 Neutral Red Dye Uptake (NRU) cytotoxicity assay procedure was adopted (Liebsch & Spielmann 1995). In brief 3T3 cell were grown in 96 well microtitre plates and exposed to IICT-TA-67. After 48-hour incubation, the test material was removed and Neutral red (NR) solution was applied to the cells. The cells were incubated again, the excess NR solution was removed and finally NR was eluted from the cells. The NRU was determined by using a microtitre plate reader to measure the optical density at 540 nm of the eluted dye in 96 well plate. A calculation of cell viability expressed as NRU was made for each concentration of the test chemical by using the mean NRU of 6 replicate values per test concentration. The cell viability value was compared with the mean NRU of all vehicle control values and relative cell viability was then expressed as percent of untreated vehicle control. […] Although the percentage of viability is slightly more than 95% at 50 μg/ml of IICT-67, 30 μg/ml (% viability of cells is 98%)

BALB/c 3T3 cell line = test: as above; assay type: cell-based; details: for toxicity: NRU cytotoxicity test (FIG. 8)
Description: as §1, §2

rodent = test: Prediction of acute oral LD50 from the IC50 by Halle's Registry of cytotoxicity (RC) prediction model; details: log (LD50)=0.435×log (IC50)+0.625
Description: as §1
Basal cytotoxicity of IICT-TA67 has been performed to measure IC50 and thereafter predict in vivo acute oral LD50 values in rodent by using Halle's Registry of cytotoxicity (RC) prediction model: log (LD50)=0.435×log (IC50)+0.625 (Halle, 1998; Spielmann et al., 1999). Balb/c 3T3 Neutral Red Dye Uptake (NRU) cytotoxicity assay procedure was adopted (Liebsch & Spielmann 1995). In brief 3T3 cell were grown in 96 well microtitre plates and exposed to IICT-TA-67. After 48-hour incubation, the test material was removed and Neutral red (NR) solution was applied to the cells. […] The NRU was determined by using a microtitre plate reader to measure the optical density at 540 nm of the eluted dye in 96 well plate. A calculation of cell viability expressed as NRU was made for each concentration of the test chemical by using the mean NRU of 6 replicate values per test concentration. The cell viability value was compared with the mean NRU of all vehicle control values and relative cell viability was then expressed as percent of untreated vehicle control. […]

PDE-4 = test: Phosphodiesterase 4 assay ([3H]cAMP SPA), enzyme preparation from rat heart; assay type: biochemical; details: 0.1-20 μg/ml, compared with rolipram (FIG. 2)

COc1ccc(C(c2[nH]c3ccccc3c2CC(=O)O)c2[nH]c3ccccc3c2CC(=O)O)cc1Oc1nc(NC2CC2)nc(NC2CC2)n1 [Compound 7, 2,2′-[2,2′-3-(4,6-bis-cyclopropylamino)-1,3,5-triazin-2-yl-oxy-4-methoxy-phenyl]-methylene-bis-(1H-indole-3,3-diyl)-diacetic acid]
IC50 [1]: 12 µg/mL (≈ 17.8 µM)
IC50 [2]: 10.6 µg/mL (≈ 15.7 µM)
IC50 at 48 h [3]: 32 µg/mL (≈ 47.5 µM)
% viability of cells (BALB/c 3T3 cell line; 30 μg/ml): 98%
percentage of viability (BALB/c 3T3 cell line; 50 μg/ml): more than 95%
toxicity (BALB/c 3T3 cell line; listed as IICT-67): does not seem to be toxic to endothelial cells
toxicity (BALB/c 3T3 cell line; listed as IICT-TA67): not toxic
predicted acute oral LD50 (rodent): 430 mg/kg body weight
inhibition of PDE4 activity (PDE-4): inhibited PDE4 activity in a dose dependent manner
